# US11413267B2, “Methods and compositions for inhibition of ATR and FANCD2 activation” (priority 2012, dated 2022)
# How the values were obtained:
# [1] = tested on: A549 cells, MDA-MB-231 cells; test: Cancer cell growth at low doses (FIGS. 19, 20); format: cell-based, human; conditions: low doses (I-1 0.25-1 μM, II-1 0.1-0.4 μM)
# [2] = tested on: ATM-mediated Chk2 phosphorylation; test: Immunoblot of DNA damage-induced Chk2 phosphorylation / ATM autophosphorylation; format: cell-based, human; conditions: for UV-induced or H2O2-induced Chk2 phosphorylation: HEK293T cells with siRNAs against ATM and DNA-PKcs
# From the text: (§1) We hypothesized that genes with functions associated with DNA damage checkpoints and/or DNA repair might be targeted by benzopyran-4-one derivatives. To test this hypothesis, we assessed the effects of benzopyran-4-one derivatives on DDR induced by H2O2. […] In response to DNA double-strand breaks (DSBs), FANCD2 is known to be monoubiquitinated on K561 (FANCD2-Ub) in an ATR-dependent manner to stimulate repair (Andreassen P R, et al. Genes Dev 2004).
# (§2) To elucidate the specificity of the benzopyran-4-one derivatives inhibition on ATR-mediated signaling, we compared the change between cells treated with benzopyran-4-one derivatives or the ATM-specific inhibitor KU55933 before the induction of DDR.
# (§3) MDA-MB-231 (breast adenocarcinoma; ATCC HTB-26, BCRC 60425) and A549 (lung adenocarcinoma; ATCC CCL-185, BCRC 60074) human cell lines were purchased from Bioresource Collection and Research Center (BCRC, Hsinchu, Taiwan), and were authenticated by American Type Culture Collection (ATCC, Manassas, Va.). U2OS (osteosarcoma), HeLa (cervical adenocarcinoma), and HEK 293T (embryonic kidney cells) human cell lines were provided by Dr. Sheau-Yann Shieh (Institute of Molecular Biology, Academia Sinica, Taipei, Taiwan). Cells were maintained in Dulbecco's modified Eagle's medium (DMEM, Sigma-Aldrich) supplemented with 10% fetal bovine serum (FBS) (Gibco). […] For UV irradiation treatment, the cells were irradiated for 10 J/m^2 by a cross-linker (UVP) 1 h prior to analysis.
# (§4) Cell lysate preparations, gel electrophoresis, and immunoblotting were performed as previously described (23). The binding of primary antibodies were detected by horseradish peroxidase-coupled secondary antibodies (Jackson ImmunoResearch) followed by enhanced chemiluminescence (ECL) (Millipore). The images of non-saturated bands were captured using a luminescent image analyzer (LAS-4000 mini; Fujifilm). The antibodies used in this study are listed in supplementary materials.
# [3] = tested on: ATR-dependent Chk1 phosphorylation; test: Immunoblot of DNA damage-induced Chk1 phosphorylation; format: cell-based, human
# From the text: as §1, §2, §3, §4
# [4] = tested on: HeLa cells; test: DNA homologous recombination repair assay (pHPRT-DRGFP / I-SceI); format: cell-based, human; conditions: for GFP cell (%): chromosomal breaks generated by I-SceI endonuclease expression, 48 h
# From the text: ATR function is also linked to DNA repair via its coupled targets (Sorensen C S, et al. Nat Cell Biol 2005). To examine the effect of benzopyran-4-one derivatives treatment on DNA repair, we performed a homologous recombination repair (HRR) assay in HeLa cells. DNA constructs of the recombination substrate pHPRT-DRGFP, in which the I-SceI site lies within 1 copy of 2 mutated tandem repeated GFP genes, and the I-SceI endonuclease expression vector pCBASceI, were originally constructed by Dr. M. Jasin (25). In brief, we generated a stable pHPRT-DRGFP construct in HeLa cells, and evaluated the chromosomal breaks generated by I-SceI endonuclease expression. Six hours after pCBASceI was delivered into the cells, complete medium with or without Protoapigenone (I-1) or compound II-1 was replaced onto the cells. Forty-eight hours after delivery, the efficiency of chromosomal HRR was obtained as the percentage of GFP-positive cells, which was assessed by flow cytometry.
# [5] = tested on: synchronized cells; test: Double-thymidine cell cycle synchronization assay (flow cytometry); format: cell-based; conditions: for Percentage of G2/M cells compared with control group, in words: 9 hours of treatment after release
# From the text: ATR are involved in DNA replication. […] In the results of double-thymidine cell cycle synchronization assay, according to the Table 4 which sorted out from FIGS. 21-23, the unsynchronized cells (FIG. 21(a)) become synchronization by using this method, and 97% of cells were stopped at G1/S boundary after two cycles of thymidine blocks (FIG. 21(b)). Those synchronized cells released from thymidine blockade and allowed progress into S phase in presence or absence of protoapigenone (I-1) and compound II-1.
# To evaluate the effect of DNA damage checkpoint activation on cell cycle distribution, the cells were harvested at indicated time points and fixed with methanol for at least 2 h. The DNA was then stained with a solution containing propidium iodide (PI) and RNase A (Sigma-Aldrich). Fluorescently labeled cells were subsequently analyzed by the flow cytometer (LSR II; BD Biosciences) with a suitable selection of excitation and emission wavelengths. The percentages of different fluorescent cell populations were analyzed using WinMDI Ver. 2.9 (The Scripps Research Institute).
# [6] = tested on: MDA-MB-231 cells; test: Mitotic entry assay (phospho-histone H3 Ser10, nocodazole trap, flow cytometry); format: cell-based, human
# From the text: Of these, the G2/M checkpoint involves ATM and ATR in collaboration, whereas the S/M checkpoint is mediated solely by ATR. To maintain genetic integrity, ATR can prevent premature mitotic entry in the event of incomplete DNA replication or unrepaired DNA damage. In order to evaluate the effect of benzopyran-4-one derivatives on these ATR-associated DNA damage checkpoints, we observed the effect of benzopyran-4-one derivatives on mitotic entry following hydroxyurea or cisplatin treatment.
# DNA replication was measured using a Click-it EdU assay kit, which is based on incorporation of the thymidine analogue 5-ethynyl-2′-deoxyuridine (EdU) into DNA during replication (Invitrogen). Then, 10 μM EdU was added to the cell culture medium 30 min before the cells were harvested and fixed in 4% paraformaldehyde. After cycloaddition, EdU was detected with Alexa Fluor 647 using click reaction catalyzed by Cu (II), and the DNA content was stained by CellCycle 405-blue. To assay the mitotic entry, cells were treated with the indicated drugs and trapped in 70 nM nocodazole for 16 h, and antibodies against phospho-histone H3 Ser10 and PI were used to stain the mitotic cells and DNA content, respectively. An FITC Annexin V apoptosis detection kit was used to characterize the phenotype of cell death based on PI and Annexin V double staining (BD Pharmingen, San Diego, Calif.). Fluorescence-labeled cells were subsequently analyzed by the BD LSR II flow cytometer with a suitable selection of excitation and emission wavelengths. The percentages of different fluorescent cells were analyzed using WinMDI Ver. 2.9.
# [7] = 6 hrs after release from synchronization
# [8] = 9 hrs after release from synchronization
# [9] = compound alone (Control group, no DNA-damaging agent)
# [10] = compound with Cisplatin (G2/M checkpoint)
# [11] = compound with Hydroxyurea (S/M checkpoint)
# [12] = A594 cells, 0.1 mM H2O2 for 2 h
SMILES,Cancer growth [1],UV-induced or H2O2-induced Chk2 phosphorylation [2],"Cell cycle G1 [5, 7]","Cell cycle G2M [5, 7]","Cell cycle S [5, 7]","Percentage of G2/M cells compared with control group, in words [5]","Cell cycle G1 [5, 8]","Cell cycle G2M [5, 8]","Cell cycle S [5, 8]","The percentage of mitotic cells [6, 9]","The percentage of mitotic cells [6, 10]","The percentage of mitotic cells [6, 11]",further results
"O=C1C=CC(O)(c2cc(=O)c3c(ccc4ccccc43)o2)C=C1 [Compound II-1, 3-(1-hydroxy-4-oxo-cyclohexa-2,5-dienyl)-1H-benzo[f]chromen-1-one]",significantly slowed cancer growth in a dose-dependent manner,increased,21.72%,4.59%,72.01%,significantly reduce,15.50%,20.45%,63.06%,12.05 ± 0.68%,8.14 ± 0.99%,10.49 ± 1.17%,"Potency in inhibiting Chk1 phosphorylation, comparison ([3]; FIGS. 6(a), 6(b)): more potent than Protoapigenone (I-1); Dose lower than that of Protoapigenone (I-1) for similar HRR effects [4]: 10 fold; GFP cell (%) ([4]; 0.2 μM): 0.703 ± 0.0304%; GFP cell (%) ([4]; 0.4 μM): 0.17%"
"O=C1C=CC(O)(c2cc(=O)c3c(O)cc(O)cc3o2)C=C1 [Compound I-1, Protoapigenone]",significantly slowed cancer growth in a dose-dependent manner,not altered,25.45%,0.41%,69.13%,significantly reduce,21.41%,16.46%,60.89%,23.69 ± 0.94%,7.99 ± 0.91%,3.40 ± 0.41%,"ATM autophosphorylation [2, 12]: not affected; Chk2 phosphorylation [2, 12]: promote; Reversal of inhibition of Chk1 phosphorylation by okadaic acid or MG132 pretreatment ([3]; 50 μM OA or 20 μM MG132, 10 J/m^2 UV 1 h): could not reverse; Chk1 phosphorylation [3, 12]: inhibit; Reversal of Chk1 phosphorylation inhibition by overexpression of ATR mediators ([3]; HEK293T cells overexpressing ATRIP, TopBP1, claspin or ATR, 10 J/m^2 UV, 1 h): overexpression of ATRIP or TopBP1 did not reverse the inhibitory effect of Protoapigenone (I-1) on Chk1 phosphorylation, whereas overexpression of claspin or ATR did; GFP cell (%) ([4]; 2.0 μM): 0.807 ± 0.0403%; GFP cell (%) ([4]; 4.0 μM): 0.213 ± 0.0105%; Repair of chromosomal breaks by HRR, in words ([4]; low concentrations): dose-dependently inhibited"
